Laboratory results: article PMC9069370, “Integrated Design of a Membrane‐Lytic Peptide‐Based Intravenous Nanotherapeutic Suppresses Triple‐Negative Breast Cancer” (Advanced Science, 2022)
Peptide text beside a SMILES is read from it.

Tests used:
[1] = tested on: HMLER; assay: cells; format: cell-based, human; settings: 72 h
From the text: (§1) […], and MCF-10A cells were maintained in MEGM with supplements and growth factors bovine pituitary extract, hydrocortisone, human epidermal growth factor, insulin, and gentamicin/amphotericin-B.

[2] = tested on: HMLER‐shEcad; assay: cells; format: cell-based, human; settings: 72 h
From the text: as §1

[3] = tested on: MCF‐10A; assay: cells; format: cell-based, human; settings: 72 h
From the text: as §1

[4] = tested on: U2OS; format: cell-based, human; settings: 72 h
[5] = tested on: HEK293T; assay: cells; format: cell-based, human; settings: 72 h
[6] = Tryptophan fluorescent binding assay; settings: tryptophan fluorescence; 50 µM peptide, lipid titrated 0-5000 µM; phosphate buffered saline 1X, pH 7.4; values as lipid per peptide
Method: 50 µM ACP peptides and varied concentrations (concentrations: 0, 25, 50, 100, 150, 200, 250, 500, 1250, and 2500 µM) of POPC or POPC:POPG (3:1 ratio) large unilamellar vesicles were prepared in 10 mM phosphate buffer (pH 7.0). The solutions were measured after 1 h of incubation. Excitation was fixed at 280 nm (slit 9 nm) and emission was collected from 300 to 450 nm (slit 9 nm). The spectra were recorded using Cytation 5 Cell Imaging Multi‐Mode Reader from BioTek and were averaged by three scans.
Lipid Concentration-induced
Name Sequence† 50% Peptide Binding (L/P)
Extended Data Table 3 | Tryptophan binding assay. […]
peptide binding onto liposome. 50 µM peptides were fixed and incubated with titrated lipid (POPC vesicle […]
phosphate buffered saline (1X, pH 7.4). The lipid concentration that causes 50 % peptide binding was determined using tryptophan fluorescent binding assay and the values are shown as lipid per peptide.

[7] = ANTS/DPX liposome leakage assay; settings: 0.5 mM vesicles, peptide 0-20 µM, 3 h incubation, lipid per peptide; for Peptide Concentration-induced 50 % ANTS/DPX leakage at pH 4.8 (L/P), 3POPC/1POPG Vesicle / Peptide Concentration-induced 50 % ANTS/DPX leakage at pH 4.8 (L/P), POPC Vesicle: HCl-adjusted PBS 1X pH 4.8; for Peptide Concentration-induced 50 % ANTS/DPX leakage at pH 7.4 (L/P), 3POPC/1POPG Vesicle / Peptide Concentration-induced 50 % ANTS/DPX leakage at pH 7.4 (L/P), POPC Vesicle: PBS 1X pH 7.4, high ratio = more potent
Method: Vesicle preparation: 5 mM ANTS and 12.5 mM DPX were entrapped in 0.1 µm diameter extruded vesicles (either POPC or POPC/POPG at a ratio of 3:1) with lipids. Gel filtration chromatography of Sephadex G‐100 was used to remove external free ANTS/DPX from LUVs with entrapped contents. LUVs were diluted to 0.5 mM and used to measure the leakage activity by the addition of aliquots of ACPs. Leakage was measured after 3 h incubation. 10% Triton was used as the positive control to measure the maximum leakage of the vesicle. Fluorescence emission spectra were recorded using excitation and emission wavelength of 350 and 510 nm for ANTS/DPX using a BioTek Synergy H1 Hybrid Multi‐Mode Reader.
Peptide Concentration-induced Peptide Concentration-induced
Name Sequence† 50 % ANTS/DPX leakage 50 % ANTS/DPX leakage at pH 7.4 (L/P) at pH 4.8 (L/P)
POPC Vesicle 3POPC/1POPG Vesicle POPC Vesicle 3POPC/1POPG Vesicle […]
Extended Data Table 4 | Peptide concentration-induced 50 % ANTS/DPX liposome leakage. 0.5 mM POPC and 3POPC/1POPG vesicles were fixed and incubated with titrated peptide concentration (0, 0.02, […]
hydrochloric acid-adjusted phoshate buffered saline (1X, pH 4.8). The values are shown as lipid per

| SMILES | IC50 [1] | IC50 [2] | IC50 [3] | IC50 [4] | IC50 [5] | Lipid Concentration-induced 50% Peptide Binding (L/P), 3POPC/1POPG Vesicle [6] | Lipid Concentration-induced 50% Peptide Binding (L/P), POPC Vesicle [6] | Peptide Concentration-induced 50 % ANTS/DPX leakage at pH 4.8 (L/P), 3POPC/1POPG Vesicle [7] | Peptide Concentration-induced 50 % ANTS/DPX leakage at pH 4.8 (L/P), POPC Vesicle [7] | Peptide Concentration-induced 50 % ANTS/DPX leakage at pH 7.4 (L/P), 3POPC/1POPG Vesicle [7] | Peptide Concentration-induced 50 % ANTS/DPX leakage at pH 7.4 (L/P), POPC Vesicle [7] |
| --- | --- | --- | --- | --- | --- | --- | --- | --- | --- | --- | --- |
| CC(C)C[C@H](NC(=O)CN)C(=O)N[C@@H](CC(C)C)C(=O)N[C@@H](CC(=O)O)C(=O)N[C@@H](CC(C)C)C(=O)N[C@@H](CC(C)C)C(=O)N[C@@H](Cc1c[nH]cn1)C(=O)N[C@@H](CC(C)C)C(=O)N[C@@H](CC(C)C)C(=O)N[C@@H](CC(C)C)C(=O)N[C@@H](CCC(=O)O)C(=O)N[C@@H](C)C(=O)N[C@@H](C)C(=O)NCC(=O)N[C@@H](Cc1c[nH]c2ccccc12)C(N)=O [DHE] (H-GLLDLLHLLLEAAGW-NH2) | 3.75 ± 0.92 µM | 2.8 ± 0.14 µM | 22.7 ± 4.31 µM | 17.2 ± 1.06 µM | 11.1 ± 1.91 µM | 0.72 L/P | 1.00 L/P | 469 L/P | 58 L/P | 581 L/P | 566 L/P |
| CC(C)C[C@H](NC(=O)CN)C(=O)N[C@@H](CC(C)C)C(=O)N[C@@H](CCCCN)C(=O)N[C@@H](CC(C)C)C(=O)N[C@@H](CC(C)C)C(=O)N[C@@H](CCC(=O)O)C(=O)N[C@@H](CC(C)C)C(=O)N[C@@H](CC(C)C)C(=O)N[C@@H](CC(C)C)C(=O)N[C@@H](CCCCN)C(=O)N[C@@H](C)C(=O)N[C@@H](C)C(=O)NCC(=O)N[C@@H](Cc1c[nH]c2ccccc12)C(N)=O [KEK] (H-GLLKLLELLLKAAGW-NH2) | 1.6 ± 0.14 µM | 1.35 ± 0.07 µM | 1.55 ± 0.07 µM | 8.15 ± 0.49 µM | 3.2 ± 0.14 µM | 0.50 L/P | 0.47 L/P | 126 L/P | 110 L/P | 438 L/P | 1173 L/P |
| CC(C)C[C@H](NC(=O)CN)C(=O)N[C@@H](CC(C)C)C(=O)N[C@@H](CCCCN)C(=O)N[C@@H](CC(C)C)C(=O)N[C@@H](CC(C)C)C(=O)N[C@@H](CCCCN)C(=O)N[C@@H](CC(C)C)C(=O)N[C@@H](CC(C)C)C(=O)N[C@@H](CC(C)C)C(=O)N[C@@H](CCC(=O)O)C(=O)N[C@@H](C)C(=O)N[C@@H](C)C(=O)NCC(=O)N[C@@H](Cc1c[nH]c2ccccc12)C(N)=O [KKE] (H-GLLKLLKLLLEAAGW-NH2) | 2.05 ± 0.64 µM | 1.7 µM | 2.9 ± 0.57 µM | 12.8 ± 1.2 µM | 4.4 ± 0.14 µM | 0.44 L/P | 0.48 L/P | 131 L/P | 143 L/P | 346 L/P | 1133 L/P |
| CC(C)C[C@H](NC(=O)CN)C(=O)N[C@@H](CC(C)C)C(=O)N[C@@H](CCCCN)C(=O)N[C@@H](CC(C)C)C(=O)N[C@@H](CC(C)C)C(=O)N[C@@H](Cc1c[nH]cn1)C(=O)N[C@@H](CC(C)C)C(=O)N[C@@H](CC(C)C)C(=O)N[C@@H](CC(C)C)C(=O)N[C@@H](Cc1c[nH]cn1)C(=O)N[C@@H](C)C(=O)N[C@@H](C)C(=O)NCC(=O)N[C@@H](Cc1c[nH]c2ccccc12)C(N)=O [KHH] (H-GLLKLLHLLLHAAGW-NH2) | 5.2 ± 0.71 µM | 4.45 ± 0.49 µM | 10.3 ± 0.49 µM | 39.8 ± 5.3 µM | 7.75 ± 0.78 µM | 0.94 L/P | 3.50 L/P | 48 L/P | 227 L/P | 329 L/P | 1153 L/P |
